US11427615B2, “Peptide compound and application thereof, and composition containing peptide compound” (XDCEXPLORER (SHANGHAI) CO., LTD., priority 2017, dated 2022)
Starred links: 1 amine or outer side, 2 acyl side, 3 side chain; linkers in the order of their positions; H or OH if unused. Non-standard residues stand in square brackets, D forms with d. Residues, ends and D or L forms follow the SMILES beside them. *: point of attachment. X8 = CCCCCCCCCCCCCCCCc1cn(CCOCCOCCOCCOCCOCCOCCOCCOCCC(=O)*)nn1; dPhe(2,4-Cl2) = N[C@H](Cc1ccc(Cl)cc1Cl)C(=O)O; Dnp = O=[N+]([O-])c1ccc(*)c([N+](=O)[O-])c1; PEG8 = NCCOCCOCCOCCOCCOCCOCCOCCOCCC(=O)O; Phe(4-F) = N[C@@H](Cc1ccc(F)cc1)C(=O)O; dAla(2-furyl) = N[C@H](Cc1ccco1)C(=O)O; Arg(Me) = CNC(=N)NCCC[C@H](N)C(=O)O; Palmitoyl = CCCCCCCCCCCCCCCC(=O)*; Hyp = O=C(O)[C@@H]1C[C@@H](O)CN1; azaPro = O=C(N1CCCN1[*:1])[*:2]; 2Thi = N[C@@H](Cc1cccs1)C(=O)O; Pip = O=C(O)[C@@H]1CCCCN1; dPip = O=C(O)[C@H]1CCCCN1; Ac6c = NC1(C(=O)O)CCCCC1; Aze = O=C(O)[C@@H]1CCN1; Dap = NC[C@H](N)C(=O)O; azaGly = NNC(=O)O

target: T1, human kiss1 receptor (GPR54) (Homo sapiens, UniProt Q969F8); test: Kiss1 receptor (GPR54) binding activity of agonists, FRET detection in NFAT-bla CHO-K1 cells; assay type: cell-based; conditions: GPR54; measured according to the method of effect Embodiment 1; preliminary data; read-out: Preliminary measurement data (GPR54) EC50
T1 construct: host or cells: NFAT-bla CHO-K1 cells (Chinese hamster ovary), purchased recombinant cell line
T1 sequence (Q969F8 whole entry): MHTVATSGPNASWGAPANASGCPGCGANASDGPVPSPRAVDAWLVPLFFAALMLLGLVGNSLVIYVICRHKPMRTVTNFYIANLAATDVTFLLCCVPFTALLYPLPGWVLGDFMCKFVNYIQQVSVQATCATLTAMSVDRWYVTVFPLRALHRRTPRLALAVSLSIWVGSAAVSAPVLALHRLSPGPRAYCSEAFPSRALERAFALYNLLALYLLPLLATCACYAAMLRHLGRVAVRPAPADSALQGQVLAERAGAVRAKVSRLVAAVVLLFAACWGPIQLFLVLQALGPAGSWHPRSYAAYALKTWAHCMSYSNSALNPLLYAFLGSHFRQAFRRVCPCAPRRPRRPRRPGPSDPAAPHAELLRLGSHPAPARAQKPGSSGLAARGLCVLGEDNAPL

| Structure (SMILES) | EC50 [nM] |
| --- | --- |
| CNC(=N)NCCC[C@H](NC(=O)[C@H](CC(C)C)NC(=O)[C@@H](Cc1ccco1)NC(=O)[C@H](Cc1ccccc1)NC(=O)[C@@H](NC(=O)[C@H](CC(N)=O)NC(=O)[C@@H]1C[C@@H](O)CN1C(=O)[C@@H](Cc1ccc(O)cc1)NC(C)=O)[C@@H](C)O)C(=O)N[C@@H](Cc1c[nH]c2ccccc12)C(N)=O [YA-168, Ac-D-Tyr-Hyp-Asn-Thr-Phe-(D-2Fua)-Leu-Arg(Me)-Trp-NH2] (Ac-[dY][Hyp]NTF[dAla(2-furyl)]L[Arg(Me)]W-NH2) | 0.531 |
| CNC(=N)NCCC[C@H](NC(=O)[C@H](CC(C)C)NC(=O)[C@@H]1CCN1C(=O)[C@H](Cc1ccccc1)NC(=O)[C@@H](NC(=O)[C@H](CC(N)=O)NC(=O)[C@@H]1C[C@@H](O)CN1C(=O)[C@@H](Cc1ccco1)NC(C)=O)[C@@H](C)O)C(=O)N[C@@H](Cc1c[nH]c2ccccc12)C(N)=O [YA-189, Ac-D-2Fua-Hyp-Asn-Thr-Phe-Aze-Leu-Arg(Me)-Trp-NH2] (Ac-[dAla(2-furyl)][Hyp]NTF[Aze]L[Arg(Me)]W-NH2) | 1.7 |
| CCCCCCCCCCCCCCCCc1cn(CCOCCOCCOCCOCCOCCOCCOCCOCCC(=O)NCC(=O)NCC(=O)N[C@H](Cc2ccc(O)cc2)C(=O)N2C[C@H](O)C[C@H]2C(=O)N[C@@H](CC(N)=O)C(=O)N[C@H](C(=O)N[C@@H](Cc2ccccc2)C(=O)NNC(=O)N[C@@H](CC(C)C)C(=O)N[C@@H](CCCNC(=N)NC)C(=O)N[C@@H](Cc2c[nH]c3ccccc23)C(N)=O)[C@@H](C)O)nn1 [YA-367, M10 [Hexadecyl-1,2,3-Triazole-PEG8, G43, G44, D-Tyr45, Hyp46, des47, T49, AzaGly51, R(Me)53, W54]] (X8-GG[dY][Hyp]NTF[azaGly]L[Arg(Me)]W-NH2) | 0.103 |
| CNC(=N)NCCC[C@H](NC(=O)[C@H](CC(C)C)NC(=O)NNC(=O)[C@H](Cc1ccccc1)NC(=O)[C@@H](NC(=O)[C@H](CC(N)=O)NC(=O)[C@H](Cc1cccs1)NC(=O)[C@@H](Cc1ccc(Cl)cc1Cl)NC(C)=O)[C@@H](C)O)C(=O)N[C@@H](Cc1c[nH]c2ccccc12)C(N)=O [YA-178, Ac-[D-Phe(2,4-DiCl)]-Thi-Asn-Thr-Phe-azaGly-Leu-Arg(Me)-Trp-NH2] (Ac-[dPhe(2,4-Cl2)][2Thi]NTF[azaGly]L[Arg(Me)]W-NH2) | 0.011 |
| CCCCCCCCCCCCCCCC(=O)NCCOCCOCCOCCOCCOCCOCCOCCOCCC(=O)NCC(=O)NCC(=O)N[C@H](Cc1ccc(O)cc1)C(=O)NC1(C(=O)N[C@@H](CC(N)=O)C(=O)N[C@H](C(=O)N[C@@H](Cc2ccccc2)C(=O)NNC(=O)N[C@@H](CC(C)C)C(=O)N[C@@H](CCCNC(=N)NC)C(=O)N[C@@H](Cc2c[nH]c3ccccc23)C(N)=O)[C@@H](C)O)CCCCC1 [YA-268, Palm-PEG8-G-G-DY-A6c-Asn-Thr-Phe-azaG-Leu-Arg(Me)-Trp-NH2] ({Palmitoyl-PEG8}-GG[dY][Ac6c]NTF[azaGly]L[Arg(Me)]W-NH2) | 0.02 |
| CNC(=N)NCCC[C@H](NC(=O)[C@H](CC(C)C)NC(=O)NNC(=O)[C@H](Cc1ccccc1)NC(=O)[C@@H](NC(=O)[C@H](CC(N)=O)NC(=O)[C@@H]1C[C@@H](O)CN1C(=O)[C@@H](Cc1ccco1)NC(C)=O)[C@@H](C)O)C(=O)N[C@@H](Cc1c[nH]c2ccccc12)C(N)=O [YA-43, Ac-(D-2Fua)-Hyp-Asn-Thr-Phe-azaGly-Leu-Arg(Me)-Trp-NH2] (Ac-[dAla(2-furyl)][Hyp]NTF[azaGly]L[Arg(Me)]W-NH2) | 0.095 |
| CNC(=N)NCCC[C@H](NC(=O)[C@H](CC(C)C)NC(=O)NNC(=O)C1(NC(=O)[C@@H](NC(=O)[C@H](CC(N)=O)NC(=O)[C@@H]2C[C@@H](O)CN2C(=O)[C@@H](Cc2ccc(O)cc2)NC(C)=O)[C@@H](C)O)CCCCC1)C(=O)N[C@@H](Cc1c[nH]c2ccccc12)C(N)=O [YA-174, Ac-(D-Tyr)-Hyp-Asn-Thr-A6c-azaGly-Leu-Arg(Me)-Trp-NH2] (Ac-[dY][Hyp]NT[Ac6c][azaGly]L[Arg(Me)]W-NH2) | 2.6 |
| CNC(=N)NCCC[C@H](NC(=O)[C@H](CC(C)C)NC(=O)C1(NC(=O)[C@H](Cc2ccccc2)NC(=O)[C@@H](NC(=O)[C@H](CC(N)=O)NC(=O)N2CCCN2C(=O)[C@@H](Cc2ccc(Cl)cc2Cl)NC(C)=O)[C@@H](C)O)CCCCC1)C(=O)N[C@@H](Cc1c[nH]c2ccccc12)C(N)=O [YA-200, Ac-D-Phe(2,4-DiCl)-azaPro-Asn-Thr-Phe-A6c-Leu-Arg(Me)-Trp-NH2] (Ac-[dPhe(2,4-Cl2)][azaPro]NTF[Ac6c]L[Arg(Me)]W-NH2) | 25.4 |
| CNC(=N)NCCC[C@H](NC(=O)[C@H](CC(C)C)NC(=O)C1(NC(=O)[C@H](Cc2ccccc2)NC(=O)[C@@H](NC(=O)[C@H](CC(N)=O)NC(=O)[C@@H]2C[C@@H](O)CN2C(=O)[C@H](Cc2ccc(F)cc2)NC(C)=O)[C@@H](C)O)CCCCC1)C(=O)N[C@@H](Cc1c[nH]c2ccccc12)C(N)=O [YA-198, Ac-Phe(4-F)-Hyp-Asn-Thr-Phe-A6c-Leu-Arg(Me)-Trp-NH2] (Ac-[Phe(4-F)][Hyp]NTF[Ac6c]L[Arg(Me)]W-NH2) | 382 |
| CNC(=N)NCCC[C@H](NC(=O)[C@H](CC(C)C)NC(=O)[C@H]1CCCCN1C(=O)[C@H](Cc1ccccc1)NC(=O)[C@@H](NC(=O)[C@H](CC(N)=O)NC(=O)[C@@H]1C[C@@H](O)CN1C(=O)[C@@H](Cc1ccc(O)cc1)NC(C)=O)[C@@H](C)O)C(=O)N[C@@H](Cc1c[nH]c2ccccc12)C(N)=O [YA-227, Ac-(D-Tyr)-Hyp-Asn-Thr-Phe-(R-Pip)-Leu-Arg(Me)-Trp-NH2] (Ac-[dY][Hyp]NTF[dPip]L[Arg(Me)]W-NH2) | 1.89 |
| CNC(=N)NCCC[C@H](NC(=O)[C@H](CC(C)C)NC(=O)[C@@H]1CCN1C(=O)[C@H](Cc1ccccc1)NC(=O)[C@@H](NC(=O)[C@H](CC(N)=O)NC(=O)[C@@H]1C[C@@H](O)CN1C(=O)[C@@H](Cc1ccc(Cl)cc1Cl)NC(C)=O)[C@@H](C)O)C(=O)N[C@@H](Cc1c[nH]c2ccccc12)C(N)=O [YA-188, Ac-[D-Phe(2,4-DiCl)]-Hyp-Asn-Thr-Phe-Aze-Leu-Arg(Me)-Trp-NH2] (Ac-[dPhe(2,4-Cl2)][Hyp]NTF[Aze]L[Arg(Me)]W-NH2) | 0.477 |
| CNC(=N)NCCC[C@H](NC(=O)[C@H](CC(C)C)NC(=O)C1(NC(=O)[C@H](Cc2ccccc2)NC(=O)[C@@H](NC(=O)[C@H](CC(N)=O)NC(=O)[C@H](Cc2cccs2)NC(=O)[C@@H](Cc2ccc(Cl)cc2Cl)NC(C)=O)[C@@H](C)O)CCCCC1)C(=O)N[C@@H](Cc1c[nH]c2ccccc12)C(N)=O [YA-206, Ac-[D-Phe(2,4-DiCl)]-Thi-Asn-Thr-Phe-A6c-Leu-Arg(Me)-Trp-NH2] (Ac-[dPhe(2,4-Cl2)][2Thi]NTF[Ac6c]L[Arg(Me)]W-NH2) | 3.6 |
| CNC(=N)NCCC[C@H](NC(=O)[C@H](CC(C)C)NC(=O)C1(NC(=O)[C@H](Cc2ccccc2)NC(=O)[C@@H](NC(=O)[C@H](CC(N)=O)NC(=O)[C@@H]2CCCCN2C(=O)[C@@H](Cc2ccc(O)cc2)NC(C)=O)[C@@H](C)O)CCCCC1)C(=O)N[C@@H](Cc1c[nH]c2ccccc12)C(N)=O [YA-228, Ac-D-Tyr-(S-Pip)-Asn-Thr-Phe-A6c-Leu-Arg(Me)-Trp-NH2] (Ac-[dY][Pip]NTF[Ac6c]L[Arg(Me)]W-NH2) | 0.65 |

same assay, conditions: Preliminary measurement data (GPR54) EC50, nM), GPR54; measured according to the method of effect Embodiment 1; preliminary data

| Structure (SMILES) | EC50 [nM] |
| --- | --- |
| CNC(=N)NCCC[C@H](NC(=O)[C@H](CC(C)C)NC(=O)NNC(=O)[C@H](Cc1ccccc1)NC(=O)[C@@H](NC(=O)[C@H](CC(N)=O)NC(=O)[C@@H]1C[C@@H](O)CN1C(=O)[C@H](CNc1ccc([N+](=O)[O-])cc1[N+](=O)[O-])NC(C)=O)[C@@H](C)O)C(=O)N[C@@H](Cc1c[nH]c2ccccc12)C(N)=O [YA-41, Ac-Dap(Dnp)-Hyp-Asn-Thr-Phe-azaGly-Leu-Arg(Me)-Trp-NH2] (Ac-[Dap](Dnp)[Hyp]NTF[azaGly]L[Arg(Me)]W-NH2) | 0.095 |
